Experimental findings from patent US7851474B2, “Dipiperazinyl ketones and related analogues” (Neurogen Corporation, priority 2005, dated 2010) are described below.

Like-named read-outs stand apart in the source and are kept apart here.

The term Ki denotes the equilibrium dissociation constant of an inhibitor or competing ligand from its target.

The assay deals with T1, chimeric human H3 receptor (Homo sapiens, UniProt Q9Y5N1, E19D).
T1 construct: made in house; host or cells: Sf9 insect cells (baculovirus infection); P2 membrane preparation
The assay is described as follows: Chimeric human H3 receptor GTP binding assay (agonist-stimulated GTP-gamma35S binding, Example 7). It counts as biochemical. Put shortly:
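Sf9 membranes co-expressing the chimeric receptor and heterotrimeric G-protein subunits, 35 μg protein per tube, in pH 7.4 Tris buffer with 10 μM GDP. Test compounds at 10^−10 to 10^−6 M with 1 μM histamine, 60 min at room temperature. Filter-bound GTP-gamma^35S read by scintillation; IC50 from non-linear regression of dose-response curves.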
For orientation: GTPγS is a poorly hydrolysed GTP analogue; its binding reports G protein activation.

Setting [1] is: Table II, "*" in Ki, assay of Example 7, read-out: Ki.
Setting [2] is: Table II "Ki", symbol "*": Ki in the assay of Example 7, read-out: Ki.
[3] abbreviates: assay of Example 7, "*" in Ki of Table II, read-out: Ki.
The mark [4] stands for this setting: assay of Example 7, symbol * in column headed Ki of Table II, read-out: Ki.
The mark [5] stands for this setting: Table II, assay of Example 7, "*" in Ki, read-out: Ki.

T1 sequence (Q9Y5N1 with tags, fused parts or gaps E19D): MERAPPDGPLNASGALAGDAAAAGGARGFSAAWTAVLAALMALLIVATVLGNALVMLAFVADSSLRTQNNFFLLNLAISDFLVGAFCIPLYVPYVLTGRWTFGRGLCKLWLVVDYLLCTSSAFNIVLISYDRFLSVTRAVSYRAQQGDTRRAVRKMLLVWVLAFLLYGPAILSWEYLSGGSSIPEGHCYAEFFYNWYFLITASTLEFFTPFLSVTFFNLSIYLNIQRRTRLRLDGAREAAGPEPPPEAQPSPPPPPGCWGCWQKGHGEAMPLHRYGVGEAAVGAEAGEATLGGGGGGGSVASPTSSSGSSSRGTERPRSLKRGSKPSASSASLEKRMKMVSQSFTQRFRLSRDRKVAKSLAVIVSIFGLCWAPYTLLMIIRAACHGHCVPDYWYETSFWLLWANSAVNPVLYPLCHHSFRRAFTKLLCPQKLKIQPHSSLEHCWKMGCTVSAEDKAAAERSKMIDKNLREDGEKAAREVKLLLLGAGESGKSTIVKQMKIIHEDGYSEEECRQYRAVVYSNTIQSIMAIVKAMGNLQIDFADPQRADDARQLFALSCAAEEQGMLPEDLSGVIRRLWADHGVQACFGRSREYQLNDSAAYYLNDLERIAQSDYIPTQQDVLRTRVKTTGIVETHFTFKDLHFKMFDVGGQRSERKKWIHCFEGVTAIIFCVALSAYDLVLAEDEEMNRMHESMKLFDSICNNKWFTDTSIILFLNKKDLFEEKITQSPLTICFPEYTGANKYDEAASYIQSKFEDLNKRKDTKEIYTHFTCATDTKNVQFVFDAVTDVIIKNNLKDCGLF

As to `CC1CCN(C(=O)c2cccc(N3CCN(CC(=O)N4CCN(C5CCC5)CC4)CC3)c2)CC1` [Compound 642, 1-cyclobutyl-4-[(4-{3-[(4-methylpiperidin-1-yl)carbonyl]phenyl}piperazin-1-yl)acetyl]piperazine], the Ki under setting [1] was under 1 µM.

On to `CCC(C)N1CCN(C(=O)CN2CCN(c3ccccc3)CC2)CC1` (stereo not drawn) [Compound 857, 1-sec-butyl-4-[(4-phenylpiperazin-1-yl)acetyl]piperazine], for which the inhibitory constant (Ki) under setting [2] is under 1 µM.

Turning to `O=C(CN1CCN(C(=O)C2CCCO2)CC1)N1CCN(C2CCC2)CC1` (stereo not drawn) [Compound 801, 1-cyclobutyl-4-{[4-(tetrahydrofuran-2-ylcarbonyl)piperazin-1-yl]acetyl}piperazine], the Ki under setting [2] is under 1 µM. Consider `CC(=O)c1ccc(N2C[C@@H](C)N(CC(=O)N3CCN(C4CCC4)CC3)[C@@H](C)C2)cc1` [Compound 1270, rel-1-(4-{(3R,5S)-4-[2-(4-cyclobutylpiperazin-1-yl)-2-oxoethyl]-3,5-dimethylpiperazin-1-yl}phenyl)ethanone], for which the Ki under setting [3] is under 1 µM.

Turning to `Cc1cccc(C)c1-c1ccc(N2CCN(CC(=O)N3CCN(C4CCC4)CC3)CC2)cc1` [Compound 697, 1-cyclobutyl-4-{[4-(2′,6′-dimethylbiphenyl-4-yl)piperazin-1-yl]acetyl}piperazine], under setting [1], the Ki is under 1 µM.

Regarding `O=C1NC2(CCN(CC(=O)N3CCN(C4CCC4)CC3)CC2)c2ccccc21` [Compound 434, 1′-[2-(4-cyclobutylpiperazin-1-yl)-2-oxoethyl]spiro[isoindole-1,4′-piperidin]-3(2H)-one], the Ki under setting [4] was under 1 µM. `O=C(CN1CCN(c2ccc(-c3ccc(C(F)(F)F)cc3)cc2)CC1)N1CCN(C2CCC2)CC1` [Compound 606, 1-cyclobutyl-4-({4-[4′-(trifluoromethyl)biphenyl-4-yl]piperazin-1-yl}acetyl)piperazine]: under setting [1], the Ki was under 1 µM.

For `O=C(CC1CCCC1)NC1CCN(CC(=O)N2CCN(C3CCC3)CC2)CC1` [Compound 1208, N-{1-[2-(4-cyclobutylpiperazin-1-yl)-2-oxoethyl]piperidin-4-yl}-2-cyclopentylacetamide], the Ki under setting [3] is under 1 µM. Consider `CC1CCCN1C(=O)c1ccc(N2CCN(CC(=O)N3CCN(C4CCC4)CC3)CC2)cc1` (stereo not drawn) [Compound 645, 1-cyclobutyl-4-[(4-{4-[(2-methylpyrrolidin-1-yl)carbonyl]phenyl}piperazin-1-yl)acetyl]piperazine], for which the Ki under setting [1] is under 1 µM. With `O=C(NC1CC1)c1cccc(N2CCN(CC(=O)N3CCN(C4CCC4)CC3)CC2)c1` [Compound 1078, 3-{4-[2-(4-cyclobutylpiperazin-1-yl)-2-oxoethyl]piperazin-1-yl}-N-cyclopropylbenzamide], under setting [5], the Ki is under 1 µM. Turning to `CCc1ccc(-c2cnc(N3CCN(CC(=O)N4CCN(C5CCC5)CC4)CC3)cn2)cc1` [Compound 930, 2-{4-[2-(4-cyclobutylpiperazin-1-yl)-2-oxoethyl]piperazin-1-yl}-5-(4-ethylphenyl)pyrazine], the Ki under setting [2] is under 1 µM. As to `COc1ccc(C)cc1-c1cnc(N2CCN(CC(=O)N3CCN(C4CCC4)CC3)CC2)cn1` [Compound 958, 2-{4-[2-(4-cyclobutylpiperazin-1-yl)-2-oxoethyl]piperazin-1-yl}-5-(2-methoxy-5-methylphenyl)pyrazine], under setting [5], the Ki is under 1 µM. As to `Cc1ccc(N2CCN(CC(=O)N3CCN(C4CCC4)CC3)CC2)cc1C` [Compound 736, 1-cyclobutyl-4-{[4-(3,4-dimethylphenyl)piperazin-1-yl]acetyl}piperazine], under setting [1], the Ki was under 1 µM. For the molecule `CNC(=O)c1ccc(N2CCN(CC(=O)N3CCN(C4CCC4)CC3)CC2)nc1` [Compound 1167, 6-{4-[2-(4-cyclobutylpiperazin-1-yl)-2-oxoethyl]piperazin-1-yl}-N-methylnicotinamide], the Ki under setting [3] is under 1 µM.

`CCN1CCN(C(=O)CN2CCN(c3ccc(Cl)cc3)CC2)CC1` [Compound 359, 1-(4-chlorophenyl)-4-[2-(4-ethylpiperazin-1-yl)-2-oxoethyl]piperazine]: the Ki is under 1 µM. With `COc1ccc(F)cc1-c1cnc(N2CCN(CC(=O)N3CCN(C4CCC4)CC3)CC2)cn1` [Compound 957, 2-{4-[2-(4-cyclobutylpiperazin-1-yl)-2-oxoethyl]piperazin-1-yl}-5-(5-fluoro-2-methoxyphenyl)pyrazine], under setting [5], the inhibitory constant (Ki) was under 1 µM. In the case of `CCCCNC(=O)c1ccc(N2CCN(CC(=O)N3CCN(C4CCC4)CC3)CC2)cc1` [Compound 1264, N-butyl-4-{4-[2-(4-cyclobutylpiperazin-1-yl)-2-oxoethyl]piperazin-1-yl}benzamide], under setting [3], the Ki is under 1 µM.

Regarding `O=C(CN1CCN(c2ccc(Cl)cc2)CC1)N1CCN(C2CCCCC2)CC1` [Compound 357, 1-(4-chlorophenyl)-4-[2-(4-cyclohexylpiperazin-1-yl)-2-oxoethyl]piperazine], under setting [4], the Ki was under 1 µM.

With `O=C(CN1CCN(c2ccccc2F)CC1)N1CCN(C2CCC2)CC1` [Compound 708, 1-cyclobutyl-4-{[4-(2-fluorophenyl)piperazin-1-yl]acetyl}piperazine], the inhibition constant Ki under setting [1] was under 1 µM. For the molecule `O=C(OCC(=O)N1CCN(C2CCC2)CC1)N1C=CC2(CC1)c1ccccc1C(=O)N2Cc1ccccc1` (stereo not drawn) [Compound 906, 2-(4-cyclobutylpiperazin-1-yl)-2-oxoethyl 2-benzyl-3-oxo-2,2′,3,3′-tetrahydro-1′H-spiro[isoindole-1,4′-pyridine]-1′-carboxylate], the inhibitory constant (Ki) under setting [2] is under 1 µM.

Turning to `O=C(CN1CCC(N2CCOCC2)CC1)N1CCN(C2CCC2)CC1` [Compound 1115, 4-{1-[2-(4-cyclobutylpiperazin-1-yl)-2-oxoethyl]piperidin-4-yl}morpholine], the Ki under setting [5] is under 1 µM.

For `Cc1ccc(-c2cnc(N3CCN(CC(=O)N4CCN(C5CCC5)CC4)CC3)cn2)cc1F` [Compound 922, 2-{4-[2-(4-cyclobutylpiperazin-1-yl)-2-oxoethyl]piperazin-1-yl}-5-(3-fluoro-4-methylphenyl)pyrazine], the inhibition constant Ki under setting [2] is under 1 µM. Take `CCN1CCN(C(=O)CN2CCN(c3ccc(OC)cc3)C(C)C2)CC1` (stereo not drawn) [Compound 1110, 4-[2-(4-ethylpiperazin-1-yl)-2-oxoethyl]-1-(4-methoxyphenyl)-2-methylpiperazine]: under setting [5], the Ki was under 1 µM. For the molecule `O=C(CN1CCN(c2ccc(-c3cccc(F)c3)cc2)CC1)N1CCN(C2CCC2)CC1` [Compound 753, 1-cyclobutyl-4-{[4-(3′-fluorobiphenyl-4-yl)piperazin-1-yl]acetyl}piperazine], the Ki under setting [1] was under 1 µM. Still for that read-out and setting: for `Cc1cc(-c2ccc(N3CCN(CC(=O)N4CCN(C5CCC5)CC4)CC3)cc2)ccc1F` [Compound 771, 1-cyclobutyl-4-{[4-(4′-fluoro-3′-methylbiphenyl-4-yl)piperazin-1-yl]acetyl}piperazine] the value was under 1 µM.

On to `COc1ccc(CN2C(=O)c3ccccc3C23CCN(CC(=O)N2CCN(C4CCC4)CC2)CC3)c(OC)c1` [Compound 425, 1′-[2-(4-cyclobutylpiperazin-1-yl)-2-oxoethyl]-2-(2,4-dimethoxybenzyl)spiro[isoindole-1,4′-piperidin]-3(2H)-one], for which the Ki under setting [4] was under 1 µM. `O=C(CN1CCN(c2cnc(-c3cc(F)ccc3F)cn2)CC1)N1CCN(C2CCC2)CC1` [Compound 960, 2-{4-[2-(4-cyclobutylpiperazin-1-yl)-2-oxoethyl]piperazin-1-yl}-5-(2,5-difluorophenyl)pyrazine]: the Ki under setting [5] is under 1 µM.
